Values joined by “and” are separate entries in the source; they are usually repeats but may differ in a detail not shown here. Equal entries are not always repeated.
Tests used:
EGFR-TK [1] = target: T1, EGFR-TK (Homo sapiens, UniProt P00533); assay: Inhibitory potency against EGFR-TK (SignaTECT protein kinase assay, [32P]ATP phosphorylation); type: biochemical; design: The EGF receptor used was an immunopurified receptor from human A431 cells (Promega, WI); purchased Promega; host or cells: A431 cells (endogenous receptor, immunopurified); conditions: immunopurified EGF receptor from human A431 cells, inhibition of phosphorylation by [32P]ATP, triplicate
Protocol: The inhibitory potency of the new derivatives against EGFR-TK was measured using a Signa TECT® Protein Kinase Assay System (Promega, WI) according to the protein tyrosine kinase assay protocol of the attached document. The EGF receptor used was an immunopurified receptor from human A431 cells (Promega, WI). […] The reaction was allowed to proceed for 10 min at 30 °C and then was stopped by the addition of guanidine hydrochloride solution (7.5 M, 13 μL). Each reaction mixture (12.5 μL) was spotted onto a biotin capture membrane. After all of the samples had been spotted, they were washed and rinsed as follows: 1 time for 30 s with 200 mL of 2 M NaCl, 3 times for 2 min each with 200 mL of 2 M NaCl, 4 times for 2 min each with 200 mL of 2 M NaCl in 1 % H3PO4, and 2 times for 30 s each with 100 mL of deionized water. The biotin capture membranes were dried on a piece of aluminum foil under a heat lamp for 5–10 min. The radioactivity trapped on the biotin capture membranes was counted with a liquid scintillation counter in 10 mL of scintillation fluid. The IC50 values were determined from sigmoid curves of the percent inhibition of [^32P]ATP radioactivity.
The inhibitory potency of new phenoxyquinazoline derivatives against EGFR-TK in A431 cell membranes was measured as the inhibition of EGFR phosphorylation by [^32P]ATP.

EGFR-TK [2] = target: T1, EGFR-TK; conditions: inhibitor 1 μM, A431 P2 membranes, 60 min, 25 °C
Source text: The difference between non-treatment and pretreatment data was examined by Student’s paired t test.

[3] = tested on: A431 epidermoid carcinoma cell line; conditions: in vitro; ref [12], [13]; read-out: IC50, cytotoxicity A431 epidermoid carcinoma cell line; cited from earlier work
EGFR-TK [4] = tested on: EGFR-TK; design: method as in PMID 21058048, PMID 22354330; conditions: ref [21], [22]; cited from earlier work
A431 tumor = assay: Tumor uptake of radioiodinated ligands in A431 tumor-bearing mice; type: in vivo, balb/c nude mice; conditions: A431 tumor-bearing mice; for accumulation in tumors: i.v., 1 h post injection
Protocol: A suspension of 1 × 10^7 A431 cells in 0.1 mL of medium was inoculated subcutaneously in male balb/c nude mice (4 weeks old, 20–25 g, n = 3). After approximately 2 weeks, when the solid tumor had grown to optimal size, the mice were used for tumor uptake studies. [^125I]6a–d (37 kBq, 74 TBq/mmol) in 0.1 mL of saline was injected intravenously into tumor-bearing mice via the lateral tail vein. At 1 or 24 h after administration, the animals were sacrificed. Samples of tumor were excised and weighed. Radioactivity was measured using a well-type NaI(Tl) scintillation gamma counter. The results were expressed in terms of percentage of injected dose per gram of tumor.

[5] = design: method as in PMID 21058048, PMID 22354330; conditions: ref [21], [22]; cited from earlier work
[6] = target: EGFR-TK in A431 cell membranes (Homo sapiens, UniProt P00533); type: binding; conditions: A431 P2 membranes, Scatchard analysis
Protocol: Assays were carried out as described in the previous section. Crude P2 membrane fractions (A431or NALM6, 0.1 mg of protein, 10 μL) and [^125I]PYK (1–300 nM, 100 μL, 0.74 kBq) were used. […] Specific binding was defined as the difference between the total and non-specific binding. Scatchard plot analysis of the saturation binding data was used to determine the equilibrium dissociation constant (K d) and the maximal number of binding sites (B max).
The crude P2 membrane fraction from A431 or NAlM6 cells were used in further binding experiments for pharmacological characterization. […] While, in the NALM6 as a negative-EGFR leukemia cell line, [^125I]PYK binding to cell membranes was undetectable.

T1 sequence (P00533 25-1210): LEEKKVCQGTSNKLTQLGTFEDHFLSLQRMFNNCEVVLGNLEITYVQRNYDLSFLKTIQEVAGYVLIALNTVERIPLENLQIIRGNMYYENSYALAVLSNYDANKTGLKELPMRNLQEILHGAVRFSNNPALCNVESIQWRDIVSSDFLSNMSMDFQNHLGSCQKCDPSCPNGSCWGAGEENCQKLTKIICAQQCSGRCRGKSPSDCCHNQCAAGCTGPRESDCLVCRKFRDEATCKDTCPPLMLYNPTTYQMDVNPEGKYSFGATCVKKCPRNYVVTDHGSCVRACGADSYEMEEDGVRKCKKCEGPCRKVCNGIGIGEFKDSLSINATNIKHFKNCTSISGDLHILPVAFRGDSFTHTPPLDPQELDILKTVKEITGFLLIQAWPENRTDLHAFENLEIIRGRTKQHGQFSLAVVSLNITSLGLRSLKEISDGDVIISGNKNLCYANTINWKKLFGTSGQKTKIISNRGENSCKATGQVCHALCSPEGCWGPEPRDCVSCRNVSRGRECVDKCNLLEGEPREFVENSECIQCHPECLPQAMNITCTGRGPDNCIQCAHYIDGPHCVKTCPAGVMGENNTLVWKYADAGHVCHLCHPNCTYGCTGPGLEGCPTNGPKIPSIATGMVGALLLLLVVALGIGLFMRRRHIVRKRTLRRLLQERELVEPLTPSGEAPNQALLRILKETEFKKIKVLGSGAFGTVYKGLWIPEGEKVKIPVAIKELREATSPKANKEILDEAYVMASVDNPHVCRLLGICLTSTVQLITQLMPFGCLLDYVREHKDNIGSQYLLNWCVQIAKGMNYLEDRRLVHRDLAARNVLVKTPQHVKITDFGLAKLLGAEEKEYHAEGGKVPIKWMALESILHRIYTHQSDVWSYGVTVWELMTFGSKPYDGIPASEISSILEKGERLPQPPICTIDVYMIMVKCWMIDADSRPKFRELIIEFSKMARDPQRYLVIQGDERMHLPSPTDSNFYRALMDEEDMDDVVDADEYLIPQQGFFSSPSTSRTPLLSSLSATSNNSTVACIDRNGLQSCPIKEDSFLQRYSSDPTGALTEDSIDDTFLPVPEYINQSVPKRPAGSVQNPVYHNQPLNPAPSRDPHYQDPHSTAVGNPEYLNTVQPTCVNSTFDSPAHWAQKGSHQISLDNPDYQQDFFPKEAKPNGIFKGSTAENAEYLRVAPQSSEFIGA
Chain of EGFR-TK in A431 cell membranes (P00533 25-1210): as above

Row | Compound | melting point | IC50 (EGFR-TK [1]) | other results
1 | CCOc1cc2ncnc(Oc3cccc(I)c3)c2cc1OCCCN1CCOCC1 [6a, 6-(3-Morpholinopropoxy)-7-ethoxy-4-(3′-iodophenoxy)quinazoline] | 135 to 137 °C | 12 ± 3.9 nM | 
2 | CCOc1cc2ncnc(Oc3cccc(I)c3)c2cc1OCCCN1CCN(C)CC1 [6b, 6-[3-(4-Methylpiperazinylpropoxy)]-7-ethoxy-4-(3′-iodophenoxy)quinazoline] |  | 16.5 ± 1.8 nM | 
3 | CCOc1cc2ncnc(Oc3cccc(I)c3)c2cc1OC(C)C [6c, 6-Isopropoxy-7-ethoxy-4-(3′-iodophenoxy)quinazoline] | 59 to 62 °C | 41.5 nM and 113 nM | 
4 | CCOc1cc2ncnc(Oc3cccc(I)c3)c2cc1OCCCN(C)C [6d, 6-(3-Dimethylaminopropoxy)-7-ethoxy-4-(3′-iodophenoxy) quinazoline] | 64 to 67 °C | 113 nM and 41.5 nM | 
5 | CCOc1cc2ncnc(Oc3cccc(I)c3)c2cc1OCCCc1ccccc1 [6e, 6-(3-Phenylpropoxy)-7-ethoxy-4-(3′-iodophenoxy)quinazoline] | 108 to 109 °C | > 500 nM | 
6 | CCOc1cc2ncnc(Oc3cccc(I)c3)c2cc1OCc1ccccc1 [6f, 6-Benzyloxy-7-ethoxy-4-(3′-iodophenoxy)quinazoline] | 140 to 142 °C | > 500 nM | 
7 | O=P(O)(O)C(O)c1ccc2ccccc2c1 (centres unmarked) [HNMPA] |  |  | blocking effect on [125I]PYK binding to EGFR-TK (EGFR-TK [2]): failed to block
8 | COc1cc2ncnc(Nc3cccc(Br)c3)c2cc1OC [PD153035, 4-(3-bromoanilino)-6,7-dimethoxyquinazoline] |  |  | IC50 [3]: 0.029 nM
9 | CCOc1cc2ncnc(Oc3cccc(I)c3)c2cc1OCC [PHY, 4-(3-Iodophenoxy)-6,7-diethoxyquinazoline, reference compound] |  | 49 ± 7.2 nM | IC50 (EGFR-TK [4]): 49 ± 7.2 nM
10 | CCOc1cc2ncnc(Oc3cccc([125I])c3)c2cc1OCCCN(C)C [[^125I]6d] |  |  | retention in tumors (in words) (A431 tumor; 24 h after injection): low retention; accumulation in tumors (A431 tumor): 0.55 ± 0.12 % ID/g tissue
11 | CCOc1cc2ncnc(Oc3cccc([125I])c3)c2cc1OCC [[^125I]PHY] |  |  | accumulation in tumors (A431 tumor): 0.56 ± 0.12 % ID/g tissue; tumor-to-blood ratio [5]: 0.94–1.50; tumor-to-muscle ratio [5]: 1.02–1.95
12 | CCOc1cc2ncnc(Oc3cccc(I)c3)c2cc1OCCCN1CCOCC1 [[^125I]PYK] |  |  | Kd [6]: 51.3 ± 11.1 nM
13 | CCOc1cc2ncnc(Nc3cccc(I)c3)c2cc1OCC [m-IPQ, 4-(3-Iodoanilino)-6,7-diethoxyquinazoline] |  |  | blocking effect on [125I]PYK binding to EGFR-TK (EGFR-TK [2]): significant reduction; IC50 (EGFR-TK [4]): 50.5 ± 3.5 nM
